Measurements reported in patent US20170348258A1, “3-Amino Benzamide Derivative Serving As B-Lactam Auxiliary Antibiotic, Preparation Method and Use Thereof” (THE HONG KONG POLYTECHNIC UNIVERSITY, priority 2014, published 2017).

What was measured:
S. aureus FtsZ = biological target: T1, S. aureus FtsZ (Staphylococcus aureus, UniProt P0A031); assay: Transmission electron microscopy of FtsZ polymer morphology; type: biochemical; settings: 100 μM compound, GTP 1 mM, 37° C. 15 minutes
T1 construct: inferred from capture on a nickel chelating column and imidazole elution; made in house; host or cells: E. coli BL21
T1 sequence (P0A031 1-390): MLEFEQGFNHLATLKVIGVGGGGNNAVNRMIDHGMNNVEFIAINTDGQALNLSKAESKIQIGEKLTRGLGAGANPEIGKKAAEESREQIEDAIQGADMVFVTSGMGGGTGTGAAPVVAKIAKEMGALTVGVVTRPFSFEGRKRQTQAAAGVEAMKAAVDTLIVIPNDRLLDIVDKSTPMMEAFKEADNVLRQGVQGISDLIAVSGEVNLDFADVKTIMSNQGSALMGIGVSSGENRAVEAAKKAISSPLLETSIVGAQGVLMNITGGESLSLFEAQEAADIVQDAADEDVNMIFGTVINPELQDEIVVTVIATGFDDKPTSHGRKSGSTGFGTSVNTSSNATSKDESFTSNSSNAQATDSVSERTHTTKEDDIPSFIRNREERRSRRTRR
Description: TEM provides a direct observation of FtsZ polymer morphology. Two promising compounds F332 and F361 were chosen for testing. S. aureus FtsZ ([…]) was incubated with the compounds at different concentrations in 50 mM MOPS buffer (pH 6.5) at 25° C. for 10 minutes. The control contained 1% DMSO only. KCl (final concentration: 50 mM) and MgCl2 (final concentration: 5 mM) were then added to the mixture. The mixture was incubated with GTP (final concentration: 1 mM) at 37° C. for 15 minutes. 10 μL reaction mixtures were applied on a glow-discharged Formvar carbon-coated copper grid (400 meshes) at 25° C. for 10 minutes. 10 μL of 0.5% phosphotungistic acid (PTA) was applied on the copper grid in order to negatively stain the proteins. The copper grid was allowed to air dry overnight.

in vivo = settings: male, Sprague-Dawley, rat
Description: Compound F332 was further subjected to in vivo pharmacokinetic study. The UPLC-MS/MS system consists of an Acquity Waters UPLC interfaced with triple quadrupole mass spectrometer (Micromass model Quattro Ultima) equipped with an electrospray ionization source in positive mode. Chromatographic separation was done on ACQUITY UPLC BEH C18 […] (2.1×50 mm) column. The mobile phase consists of methanol+0.1% formic acid (solvent B) and Milli-Q water+0.1% formic acid (solvent A). Multiple reaction monitoring (MRM) was set monitoring the transitions for F332 [M+H]^+ at 299>142 m/z. The collision energy, cone voltage, source temperature, desolvation temperature and capillary voltage are 25, 30, 150° C., 350° C. and 3 Kv, respectively. The cone gas and desolvation gas was 150 L/Hr and 600 L/Hr, respectively.
Male Sprague-Dawley (SD) rats (body weight 250-280 g) were obtained from Centralised Animal Facilities, The Hong Kong Polytechnic University. Animals were kept in a temperature and humidity controlled environment with 12 hour light-dark cycle with standard diet and water. Animal experiment protocol was approved by the Animal Subjects Ethics Sub-Committee of The Hong Kong Polytechnic University. Right jugular vein cannulation was done one day in advance of the experiment. Animal were fasted overnight and had free access to water throughout the experiment. F332 was freshly prepared in 5% CremophorEL, 5% ethanol, 90% saline at a concentration of 2 mg/ml. F332 was prepared on the day of use and used for animal study within half an hour. In the current study, F332 was administered through passive oral feeding (oral) and intravenous (IV) injection. Blood samples (approx. 500 μL) were collected in heparinzied tubes (20 units of heparin salt/tube) via jugular vein at 5, 10, 30, 45, 60, 120, 240 and 420 minutes post administration for IV study. As for oral study, plasma samples were collected at 2, 10, 30, 45, 60, 120, 240, 480 and 600 minutes. Blood plasma samples were collected by centrifuged at 16,100 G for 10 minutes. For all blood plasma samples, 3 fold volume of methanol was added for protein precipitation. Supernatant was filtered by a syringe filter before UPLC-MS/MS analysis. Pharmacokinetic parameters in plasma were determined by non-compartmental pharmacokinetics data analysis using Pharmacokinetics Solutions 2.0 software (Summit Research Services, Montrose, Colo., USA). The pharmacokinetic parameters determined include maximal plasma concentration (Cmax), time to reach maximal plasma concentration (Tmax), mean residence time (MRT), absorption/distribution half life (t1/2α), elimination half life (t1/2β), volume of distribution (Vd), systemic clearance (CL) and the area under the concentration-time curve (AUC).

MRSA strain 254 = assay: FICI of F332 with antibiotics; type: cell-based, S. aureus
MRSA strain 3589 = assay: FICI of F332 with antibiotics; type: cell-based, S. aureus
MRSA strain 1136 = assay: FICI of F332 with antibiotics; type: cell-based, S. aureus
MRSA strain 2919 = assay: FICI of F332 with antibiotics; type: cell-based, S. aureus
MRSA strain 2224 = assay: FICI of F332 with antibiotics; type: cell-based, S. aureus
MRSA strain 200 = assay: FICI of F332 with antibiotics; type: cell-based, S. aureus

In the case of `CCCCCCCCCNc1ccc(F)c(C(N)=O)c1F` [Compound F332, 2,6-difluoro-3-(nonylamino)benzamide], the “FtsZ polymer morphology (TEM)” value (S. aureus FtsZ) is reported as “relatively short and straight single strand FtsZ protofilaments”, the AUC (in vivo; iv, 1 mg/kg) is reported as 1740 ng·h/mL and the AUC(0-t) (in vivo; iv, 1 mg/kg) is reported as 699 ng·h/mL. The MRT (in vivo; iv, 1 mg/kg) was 8.08 h, the Vd (in vivo; iv, 1 mg/kg) was 4.81 L/kg and the clearance (in vivo; iv, 1 mg/kg) was 10 mL/min/kg. It also gave a half-life (in vivo; iv, 1 mg/kg, Absorption/distribution half life) of 0.25 h, a half-life (in vivo; iv, 1 mg/kg, Elimination half life) of 5.82 h and an AUC (in vivo; po, 50 mg/kg) of 10400 ng·h/mL. The AUC(0-t) (in vivo; po, 50 mg/kg) was 8980 ng·h/mL, the “CL (area)/kg” value (in vivo; po, 50 mg/kg) was 80 mL/min/kg and the Cmax (in vivo; po, 50 mg/kg) was 1920 ng/mL. For the same compound, the MRT (in vivo; po, 50 mg/kg) was 4.82 h, the Tmax (in vivo; po, 50 mg/kg) was 2 h and the “Vd (area)/kg” value (in vivo; po, 50 mg/kg) was 20.916 L/kg. The half-life (in vivo; po, 50 mg/kg) was 3 h, the half-life (in vivo; po, 50 mg/kg, Absorption/distribution half life) was 0.35 h and the bioavailability (in vivo; po, 50 mg/kg, Bioavailability) was ~12%. The “FICI of F332 combined with Amoxicillin” value (MRSA strain 254) was 0.56, the “FICI of F332 combined with Cefuroxime” value (MRSA strain 254) was 0.25 and the “FICI of F332 combined with Cloxacillin” value (MRSA strain 254) was 0.19. The “FICI of F332 combined with Meropenem” value (MRSA strain 254) was 1.50, the “FICI of F332 combined with Meticillin” value (MRSA strain 254) was 0.25 and the “FICI of F332 combined with Amoxicillin” value (MRSA strain 3589) was 1.06. For the same compound, the “FICI of F332 combined with Cefuroxime” value (MRSA strain 3589) was 0.25, the “FICI of F332 combined with Cloxacillin” value (MRSA strain 3589) was 0.31 and the “FICI of F332 combined with Meropenem” value (MRSA strain 3589) was 1.50. The “FICI of F332 combined with Meticillin” value (MRSA strain 3589) was 0.52, the “FICI of F332 combined with Amoxicillin” value (MRSA strain 1136) was 1.03 and the “FICI of F332 combined with Cefuroxime” value (MRSA strain 1136) was 0.13. The “FICI of F332 combined with Cloxacillin” value (MRSA strain 1136) was 0.38, the “FICI of F332 combined with Meropenem” value (MRSA strain 1136) was 4.50 and the “FICI of F332 combined with Meticillin” value (MRSA strain 1136) was 0.31. For the same compound, the “FICI of F332 combined with Amoxicillin” value (MRSA strain 2919) was 0.51, the “FICI of F332 combined with Cefuroxime” value (MRSA strain 2919) was 0.25 and the “FICI of F332 combined with Cloxacillin” value (MRSA strain 2919) was 0.31. For the same compound, the “FICI of F332 combined with Meropenem” value (MRSA strain 2919) was 4.25, the “FICI of F332 combined with Meticillin” value (MRSA strain 2919) was 0.38 and the “FICI of F332 combined with Amoxicillin” value (MRSA strain 2224) was 0.19. The “FICI of F332 combined with Cefuroxime” value (MRSA strain 2224) was 0.25, the “FICI of F332 combined with Cloxacillin” value (MRSA strain 2224) was 0.25 and the “FICI of F332 combined with Meropenem” value (MRSA strain 2224) was 4.01. For the same compound, the “FICI of F332 combined with Meticillin” value (MRSA strain 2224) was 0.13, the “FICI of F332 combined with Amoxicillin” value (MRSA strain 200) was 0.02 and the “FICI of F332 combined with Cefuroxime” value (MRSA strain 200) was 1.00. For the same compound, the “FICI of F332 combined with Cloxacillin” value (MRSA strain 200) was 1.00, the “FICI of F332 combined with Meropenem” value (MRSA strain 200) was 8.01 and the “FICI of F332 combined with Meticillin” value (MRSA strain 200) was 0.25.

For `CCCCCCCCCN(C)c1ccc(F)c(C(N)=O)c1F` [Compound F361, 2,6-difluoro-3-(methyl(nonyl)amino)benzamide], the “FtsZ polymer morphology (TEM)” value (S. aureus FtsZ) was “relatively short and straight single strand FtsZ protofilaments”.
